We go through 18 compounds from patent US11970474B2, “Substituted benzodiazoles and use thereof in therapy” (THOMAS HELLEDAYS STIFTELSE FÖR MEDICINSK FORSKNING, priority 2018, dated 2024).

By IC50 is commonly meant the concentration needed to halve the response being measured. A lower IC50 goes with inhibition by little substance. By EC50 is commonly meant the concentration at which the effect is half-maximal.

One experiment concerns MLE12 cells. Description: Cell viability assay in MLE12 cells (resazurin). The experiment is classed as cell-based, mouse. To be noted: Mus musculus, TNF-α 20 ng/ml, resazurin added after 24 hours culture. On the procedure: (§1) Stock solutions (10 mM in DMSO) of compounds were dispensed in V-bottom 384-well plates and the following dilutions were prepared: 10 mM and 0.05 mM. The dilutions were transferred to the source plate. Duplicate 6 points dose-response curves of compounds were nano-dispensed in cell plates (CCL2 assay) and in parallel, 11 points DR curves in duplicates were nano-dispensed for the viability assay. The plates were heat sealed and kept at RT until use.
(§2) MLE12 cells in flasks were washed once with PBS, detached with Trypsin/EDTA, resuspended in fresh medium and counted. Cells were diluted to 3×10^5 cells/ml and seeded with Multidrop Combi in cell plates pre-dispensed with compounds, 25 μl/well (7500 cells/well). The plates were placed, one by one, in a CO2-incubator at 37° C. for 1 hour after which 25 μl/well of TNF-α (final concentration 20 ng/ml) were added. The plates were transferred back to the CO2-incubator placed in a plastic box with wet tissue in the bottom, to avoid evaporation, for 30 hours.
After 24 hours culture, resazurin reagent (stock 1 mg/ml in PBS) diluted 1:17 in PBS was added with Multidrop Combi, 10 μl/well, and plates were incubated for 6 hours. Plates were read in Sense plate reader with resorufin protocol (ex544 nm/em595 nm). The results were imported to an excel template where the EC50 values were calculated using XLfit.

For another experiment, the system named is CCL2. Nature of the experiment: Mouse CCL2 assay in MLE12 cells. Conditions: Mus musculus, MLE12, 30 h. Type of experiment: cell-based.
Excerpt: Cisbio mouse CCL2 assay is intended for the quantitative measurement of CCL2 in supernatant using HTRF® technology. The assay is compatible with mouse samples, and is highly specific for CCL2. CCL2 is detected in a sandwich assay format using 2 different specific antibodies, one labeled with Cryptate (donor) and the second with d2 (acceptor). The detection principle is based on HTRF® technology. When the labelled antibodies bind to the same antigen, the excitation of the donor with a light source (laser or flash lamp) triggers a Fluorescence Resonance Energy Transfer (FRET) towards the acceptor, which in turn fluoresces at a specific wavelength (665 nm). The two antibodies bind to the CCL2 present in the sample, thereby generating FRET. Signal intensity is proportional to the number of antigen-antibody complexes formed and therefore to the CCL2 concentration. • Materials: • Cells: MLE12 (Mouse Lung Epithelial cells, SV40 transformed) • Medium: DMEM/F12 (Gibco #11330057), FBS 5% (Gibco #10500064), Pen/Strep 50 U/50 μg/ml (Gibco #15070063) • Cell plates: 384-well, black/clear, TC-treated (Corning #3764) • Source plate: Labcyte LDV 384 (Labcyte #LP-0200) • Compound dilution plate: V-bottom 384-well PP plate (Greiner #781280) • Compounds: 10 mM stocks in DMSO • HTRF plates: 384-well, white, half area, non-binding (Costar #3824) • Mouse CCL2 kit: Cisbio 62MCCL2PEH • Other reagents: Trypsin/EDTA 10× (Gibco #15400054), PBS (Gibco #14190169), Resazurin (Sigma-Aldrich #199303), 1 mg/ml in PBS, TNF-α 200 μg/ml in PBS (Peprotech #300-01A) • Instruments: • Echo liquid handler (Labcyte) • Multidrop Combi (Thermo Scientific) • Sense plate reader (Hidex) Compound Handling:
as §1, §2
After 30 hours incubation, the plates were spun down 5 minutes at 400 g, and 16 μl/well of the supernatants were transferred to the assay plate. A mCCL2 standard curve was prepared according to the kit protocol and 16 μl/well of the standards were also added to the assay plate.
The anti-CCL2 antibody mix was prepared according to the kit protocol, and 4 μl/well were added to the assay plate. The plate was sealed and incubated over night at RT. After incubation the plate was read in Sense plate reader with Time-resolved FRET protocol (Ex330 nm/Em 620 and 665 nm). After data reduction, the delta ratios were imported to an excel template where the IC50 values were calculated.

For a further experiment, the target named is OGG1 (Homo sapiens (Human), UniProt O15527). Nature of the experiment: In vitro OGG1 activity assay. The experiment is classed as biochemical. To be noted: 800 pM OGG1 enzyme, 2 nM human APEX1, 10 nM 8-oxoA:C substrate. An outline of the steps: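 Fluorescence-release assay on a duplex oligonucleotide carrying an OGG1 substrate base beside a fluorophore, quenched from the complementary strand. Excess APEX1 cleaves the abasic site left by base excision, melting the duplex and unquenching the fluorophore. Compounds in DMSO were dispensed before enzyme and substrate, and fluorescein signal was read.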

Setting [1] is: MLE12 cells, TNF-α 20 ng/ml, supernatant after 30 hours, HTRF, read-out: CCL2 (EC50).

Where two headings read alike, the source gives them in different places.

Sequence of OGG1 (O15527 whole entry): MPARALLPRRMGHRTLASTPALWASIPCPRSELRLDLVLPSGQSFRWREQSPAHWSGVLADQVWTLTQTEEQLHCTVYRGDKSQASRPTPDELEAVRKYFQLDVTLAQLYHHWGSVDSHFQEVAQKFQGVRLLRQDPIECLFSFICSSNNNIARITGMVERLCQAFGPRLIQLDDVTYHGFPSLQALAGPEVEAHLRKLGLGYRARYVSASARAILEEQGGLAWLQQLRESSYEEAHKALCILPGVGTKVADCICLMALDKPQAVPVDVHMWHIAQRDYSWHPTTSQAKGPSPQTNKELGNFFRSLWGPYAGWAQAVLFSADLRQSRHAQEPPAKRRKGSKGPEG

On to `COc1ccc(NC(=O)[C@H]2CC[C@@H](n3c(=O)[nH]c4c(Br)cccc43)CC2)cc1C(F)(F)F` [Example 129, (Cis)-4-(4-bromo-2-oxo-2,3-dihydro-1H-1,3-benzodiazol-1-yl)-N-[4-methoxy-3-(trifluoromethyl)phenyl]cyclohexane-1-carboxamide], for which the IC50 is 9.48 µM in the experiment with MLE12 cells (MLE12, 24 h) and 0.116 µM against OGG1. Also, in the experiment on CCL2 (setting [1]), the EC50 stood at 21600 nM.

For the compound `O=c1[nH]c2c(Br)cccc2n1[C@H]1CC[C@@H](C(=O)Nc2ccc(F)cc2)CC1` [Example 136, (Cis)-4-(4-bromo-2-oxo-2,3-dihydro-1H-1,3-benzodiazol-1-yl)-N-(4-fluorophenyl)cyclohexane-1-carboxamide], the IC50 was 8.86 µM in the experiment with MLE12 cells (MLE12, 24 h) and 0.501 µM against OGG1. Besides, the concentration for a half-maximal effect (EC50) in the experiment with CCL2 (setting [1]) turned out to be 23800 nM.

With `Cn1c(NC(=O)[C@H]2CC[C@@H](n3c(=O)[nH]c4c(Br)cccc43)CC2)nc2ccccc21` [Example 257, Cis-4-(4-bromo-2-oxo-2,3-dihydro-1H-1,3-benzodiazol-1-yl)-N-(1-methyl-1H-1,3-benzodiazol-2-yl)cyclohexane-1-carboxamide], the IC50 in the experiment with MLE12 cells (MLE12, 24 h) was determined as 19.9 µM; against OGG1 it was 0.0269 µM. Further, the EC50 in the experiment with CCL2 (setting [1]) worked out at 34300 nM.

In the experiment with MLE12 cells (MLE12, 24 h), `Cc1ccc(NC(=O)[C@H]2CC[C@@H](n3c(=O)[nH]c4c(Br)cccc43)CC2)cc1C` [Example 124, (Cis)-4-(4-bromo-2-oxo-2,3-dihydro-1H-1,3-benzodiazol-1-yl)-N-(3,4-dimethylphenyl)cyclohexane-1-carboxamide] had a 50% inhibitory concentration (IC50) of 11.5 µM. For the same compound, in the experiment on CCL2 (setting [1]), the EC50 is 31200 nM.

Regarding `Cc1cc(NC(=O)N2C3CCC2CC(n2c(=O)[nH]c4c(-c5ccc(CO)nc5)cccc42)C3)ccc1I` (stereo not drawn) [Example 91, 3-{4-[6-(Hydroxymethyl)pyridin-3-yl]-2-oxo-2,3-dihydro-1H-1,3-benzodiazol-1-yl}-N-(4-iodo-3-methylphenyl)-(endo)-8-azabicyclo[3.2.1]octane-8-carboxamide], the half-maximal inhibitory concentration (IC50) in the experiment with MLE12 cells (MLE12, 24 h) was determined as 6.45 µM; against OGG1, 0.058 µM. Moreover, in the experiment on CCL2 (setting [1]), the half-maximal effective concentration (EC50) stood at 12600 nM.

Take `COc1cc(NC(=O)[C@H]2CC[C@@H](n3c(=O)[nH]c4c(N5CC[C@H](N(C)C)C5)cccc43)CC2)ccc1C` [Example 295, Cis-4-{4-[(3S)-3-(dimethylamino)pyrrolidin-1-yl]-2-oxo-2,3-dihydro-1H-1,3-benzodiazol-1-yl}-N-(3-methoxy-4-methylphenyl)cyclohexane-1-carboxamide]: the IC50 in the experiment with MLE12 cells (MLE12, 24 h) is 10.4 µM; against OGG1 it was 0.00962 µM. For the same compound, the EC50 in the experiment on CCL2 (setting [1]) worked out at 11100 nM.

Regarding `Nc1ccc(-c2cccc3c2[nH]c(=O)n3C2CCN(C(=O)Nc3ccc(Cl)c(Cl)c3)CC2)cn1` [Example 39, 4-[4-(6-Aminopyridin-3-yl)-2-oxo-2,3-dihydro-1H-1,3-benzodiazol-1-yl]-N-(3,4-dichlorophenyl)piperidine-1-carboxamide], the concentration for half-maximal inhibition (IC50) turned out to be 6.5 µM in the experiment on MLE12 cells (MLE12, 24 h) and 0.788 µM on OGG1. For the same compound, in the experiment with CCL2 (setting [1]), the EC50 turned out to be 15100 nM.

As to `COc1cc(NC(=O)[C@H]2CC[C@@H](n3c(=O)[nH]c4c(NC(=O)c5cnco5)cccc43)CC2)ccc1C` [Example 301, N-{2-Oxo-1-[cis-4-[(3-methoxy-4-methylphenyl)carbamoyl]cyclohexyl]-2,3-dihydro-1H-1,3-benzodiazol-4-yl}-1,3-oxazole-5-carboxamide], the IC50 with MLE12 cells (MLE12, 24 h) worked out at 16.2 µM; at OGG1, 0.00691 µM. For the same compound, the EC50 with CCL2 (setting [1]) came out at 43000 nM.

In the case of `COc1cc(NC(=O)[C@H]2CC[C@@H](n3c(=O)[nH]c4c(O)cccc43)CC2)ccc1C` [Example 227, Cis-4-(4-hydroxy-2-oxo-2,3-dihydro-1H-1,3-benzodiazol-1-yl)-N-(3-methoxy-4-methylphenyl)cyclohexane-1-carboxamide], the IC50 with MLE12 cells (MLE12, 24 h) came out at 16.5 µM; against OGG1, 0.0179 µM. In addition, the half-maximal effective concentration (EC50) in the experiment with CCL2 (setting [1]) is 27500 nM.

On to `O=C(Nc1ccc(Cl)c(F)c1)N1C2CCC1CC(n1c(=O)[nH]c3c(Br)cccc31)C2` (stereo not drawn) [Example 86, 3-(4-Bromo-2-oxo-2,3-dihydro-1H-1,3-benzodiazol-1-yl)-N-(4-chloro-3-fluorophenyl)-(endo)-8-azabicyclo[3.2.1]octane-8-carboxamide], for which the concentration for half-maximal inhibition (IC50) in the experiment on MLE12 cells turned out to be 13.7 µM; on OGG1, 0.059 µM. Besides, the concentration giving a half-maximal response (EC50) in the experiment with CCL2 (read-out: CCL2 (EC50, nM)) is 19400 nM.

With `O=c1[nH]c2c(Br)cccc2n1[C@H]1CC[C@@H](C(=O)Nc2ccc3c(c2)OCO3)CC1` [Example 166, (Cis)-N-(2H-1,3-benzodioxol-5-yl)-4-(4-bromo-2-oxo-2,3-dihydro-1H-1,3-benzodiazol-1-yl)cyclohexane-1-carboxamide], the half-inhibitory concentration (IC50) was 16.4 µM in the experiment with MLE12 cells (MLE12, 24 h) and 0.041 µM at OGG1. The concentration giving a half-maximal response (EC50) with CCL2 (setting [1]) amounted to 42700 nM.

`O=c1[nH]c2c(Br)cccc2n1[C@H]1CC[C@@H](C(=O)Nc2ccc(Cl)c(F)c2)CC1` [Example 121, (Cis)-4-(4-bromo-2-oxo-2,3-dihydro-1H-1,3-benzodiazol-1-yl)-N-(4-chloro-3-fluorophenyl)cyclohexane-1-carboxamide] registered an IC50 in the experiment on MLE12 cells (MLE12, 24 h) of 4.86 µM. Further, the concentration giving a half-maximal response (EC50) with CCL2 (setting [1]) amounted to 13000 nM.

Compound `Nc1cccc2c1[nH]c(=O)n2C1CCN(C(=O)Nc2ccc(I)cc2)CC1` [Example 20, 4-(4-Amino-2-oxo-2,3-dihydro-1H-1,3-benzodiazol-1-yl)-N-(4-iodophenyl)piperidine-1-carboxamide] returned an IC50 in the experiment on MLE12 cells (MLE12, 24 h) of 11.5 µM. For the same compound, the half-maximal effective concentration (EC50) with CCL2 (setting [1]) is 33000 nM.

In turn, `O=C(Nc1ccc(I)cc1)N1CCC(n2c(=O)[nH]c3c(-c4cccnc4)cccc32)CC1` [Example 26, N-(4-iodophenyl)-4-[2-oxo-4-(pyridin-3-yl)-2,3-dihydro-1H-1,3-benzodiazol-1-yl]piperidine-1-carboxamide] returned a half-inhibitory concentration (IC50) in the experiment with MLE12 cells (MLE12, 24 h) of 7.7 µM. In addition, the EC50 in the experiment with CCL2 (setting [1]) worked out at 15000 nM.

Compound `COc1cc(NC(=O)[C@H]2CC[C@@H](n3c(=O)[nH]c4c(Br)cccc43)CC2)ccc1F` [Example 130, (Cis)-4-(4-bromo-2-oxo-2,3-dihydro-1H-1,3-benzodiazol-1-yl)-N-(4-fluoro-3-methoxyphenyl)cyclohexane-1-carboxamide] gave an IC50 in the experiment on MLE12 cells (MLE12, 24 h) of 6.36 µM. Besides, the half-maximal effective concentration (EC50) in the experiment with CCL2 (setting [1]) amounted to 22600 nM.

Turning to `O=C(Nc1ccc(I)cc1)N1CCC(n2c(=O)[nH]c3cc(Cl)ccc32)CC1` [Example 2, 4-(5-Chloro-2-oxo-2,3-dihydro-1H-1,3-benzodiazol-1-yl)-N-(4-iodophenyl) piperidine-1-carboxamide], inhibition in the experiment on MLE12 cells (MLE12, 24 h) was half-maximal at 10.3 µM (IC50). Further, the concentration for a half-maximal effect (EC50) in the experiment with CCL2 (setting [1]) stood at 15400 nM.

Consider `COc1cc(NC(=O)[C@H]2CC[C@@H](n3c(=O)[nH]c4c(N)cccc43)CC2)ccc1C` [Example 249, Cis-4-(4-amino-2-oxo-2,3-dihydro-1H-1,3-benzodiazol-1-yl)-N-(3-methoxy-4-methylphenyl)cyclohexane-1-carboxamide], for which the midpoint of inhibition in the experiment with MLE12 cells (MLE12, 24 h), the IC50, lay at 15.7 µM. Further, the EC50 in the experiment with CCL2 (setting [1]) came out at 34700 nM.

As to `O=C(Nc1ccc(I)cc1)N1CCC(n2c(=O)[nH]c3c(-n4cc(Br)cn4)cccc32)CC1` [Example 41, 4-[4-(4-Bromo-1H-pyrazol-1-yl)-2-oxo-2,3-dihydro-1H-1,3-benzodiazol-1-yl]-N-(4-iodophenyl)piperidine-1-carboxamide], the IC50 in the experiment on MLE12 cells (MLE12, 24 h) was found to be 16.6 µM. For the same compound, the EC50 in the experiment on CCL2 (setting [1]) worked out at 50700 nM.
